Broadly, the IC50 is the midpoint of a concentration-inhibition curve. A higher IC50 goes with weaker potency in that assay. For orientation: melting point means the temperature of the solid-liquid transition.

The structures appear in SMILES notation.

The values below come from US6528528B2 (Warner-Lambert Company, priority 1997, dated 2003).

Data set [1] has as its target T1, rabbit reticulocyte 15-LO (Oryctolagus cuniculus, UniProt P12530).
T1 construct: Fifteen-lipoxygenase was obtained from phenylhydrazine-treated rabbits and purified per the method of Rapoport; from tissue; host or cells: reticulocytes of phenylhydrazine-treated rabbits
T1 sequence (P12530 1-663): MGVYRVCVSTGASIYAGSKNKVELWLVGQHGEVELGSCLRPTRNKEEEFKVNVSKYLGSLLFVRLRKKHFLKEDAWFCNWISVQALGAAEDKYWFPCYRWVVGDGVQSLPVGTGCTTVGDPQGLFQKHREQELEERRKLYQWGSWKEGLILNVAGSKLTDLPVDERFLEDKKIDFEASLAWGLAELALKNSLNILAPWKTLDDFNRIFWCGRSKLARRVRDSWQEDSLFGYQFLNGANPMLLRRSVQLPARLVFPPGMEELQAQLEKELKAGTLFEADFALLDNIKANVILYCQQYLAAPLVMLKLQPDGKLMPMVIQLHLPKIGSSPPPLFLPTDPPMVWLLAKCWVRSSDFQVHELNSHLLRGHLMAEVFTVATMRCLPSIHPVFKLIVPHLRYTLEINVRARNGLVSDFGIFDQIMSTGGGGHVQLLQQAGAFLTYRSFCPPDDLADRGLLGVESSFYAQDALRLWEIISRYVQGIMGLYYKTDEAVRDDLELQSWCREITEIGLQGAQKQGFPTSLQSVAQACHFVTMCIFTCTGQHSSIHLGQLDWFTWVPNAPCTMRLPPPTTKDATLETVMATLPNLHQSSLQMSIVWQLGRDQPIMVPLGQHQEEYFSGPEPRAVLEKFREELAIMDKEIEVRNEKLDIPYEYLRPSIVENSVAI
Briefly: Rabbit Reticulocyte 15-LO Assay (h15LO). The data set is classed as biochemical. The note with it: Table 2; 2U rabbit reticulocyte 15-LO, 174 μM linoleic acid, 15 minutes at 4° C. The essentials: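 Purified rabbit reticulocyte 15-LO (2U) incubated with inhibitor and 174 μM linoleic acid in PBS with 0.2% Na cholate for 15 minutes at 4° C. 13-HPODE quantified by peak area against 13-HODE standard curve; % inhibition relative to uninhibited reaction.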

`COc1ccc(NC(=O)c2ccc(O)c(Nc3cc(Cl)cc(Cl)c3)c2)cc1` [Example 57, 3-(3,5-Dichloro-phenylamino)-4-hydroxy-N-(4-methoxyphenyl)-benzamide] showed a melting point of 186 to 187 °C. In data set [1], this compound displayed an IC50 of 165 nM.
Taken in the same sequence, the figures for `Cc1ccc(NC(=O)c2ccc(O)c(Nc3cc(Cl)cc(Cl)c3)c2)cc1` [Example 58, 3-(3,5-Dichloro-phenylamino)-4-hydroxy-N-(4-methylphenyl)-benzamide] were 179 to 183 °C and 80 nM.
On the same counts, the results for `COc1ccc(NC(=O)c2ccc(O)c(Nc3cc(Cl)cc(Cl)c3)c2)cc1O` [Example 59, 3-(3,5-Dichloro-phenylamino)-4-hydroxy-N-(3-hydroxy-4-methoxyphenyl)-benzamide] are 170 to 171 °C and 1460 nM.
On the same counts, the results for `COc1ccc(C(=O)Nc2ccccc2)cc1NC(=S)Nc1cccc(Cl)c1` [Example 61, 3-[3-(3-Chlorophenyl)-thioureido]-4-methoxy-N-phenyl-benzamide] are 165 to 168 °C and 11 nM.
`COc1ccc(C(=O)Nc2ccccc2)cc1NC(=S)Nc1ccccc1` [Example 62, 4-Methoxy-N-phenyl-3-(3-phenyl-thioureido)-benzamide]: the melting point lay in the range of 174 to 176 °C. This compound also yielded an IC50 in data set [1] of 70 nM.
`COc1ccc(C(=O)Nc2ccccc2)cc1NC(=S)Nc1ccc(C(F)(F)F)cc1` [Example 63, 4-Methoxy-N-phenyl-3-[3-(4-trifluoromethyl-phenyl)-thioureido]-benzamide]: the melting point was 194 to 196 °C. This compound also came in with an IC50 in data set [1] of 49 nM.
On the same counts, the results for `COc1ccc(C(=O)Nc2ccccc2)cc1NC(=S)Nc1ccc(C(C)(C)C)cc1` [Example 64, 3-[3-(4-tert-Butyl-phenyl)-thioureido]-4-methoxy-N-phenyl-benzamide] are 198 to 200 °C and 41 nM.
Consider `O=C(Nc1ccccc1)c1cccc(NC(=S)Nc2cc(Cl)cc(Cl)c2)c1` [Example 70, 3-[3-(3,5-Dichlorophenyl)-thioureido]-N-phenyl-benzamide], for which the melting point is 174 to 177 °C. Further, inhibition in data set [1] was half-maximal at 500 nM (IC50).
On the same counts, the results for `Cc1ccc(C(=O)Nc2ccccc2)cc1NC(=S)Nc1cc(Cl)cc(Cl)c1` [Example 71, 3-[3-(3,5-Dichlorophenyl)-thioureido]-4-methyl-N-phenyl-benzamide] are 182 to 184 °C and 526 nM.
Taken in the same sequence, the figures for `COc1ccc(C(=O)Nc2ccccc2)cc1NC(=S)Nc1ccc(OC)c(OC)c1` [Example 72, 3-[3-(3,4-Dimethoxyphenyl)-thioureido]-4-methoxy-N-phenyl-benzamide] were 170 to 171 °C and 56 nM.
On the same counts, the results for `COc1ccc(C(=O)Nc2ccccc2)cc1NC(=S)Nc1cccc(C#N)c1` [Example 74, 3-[3-(3-Cyanophenyl)-thioureido]-4-methoxy-N-phenyl-benzamide] are 183 to 185 °C and 14.9 nM.
In turn, `COc1ccc(C(=O)Nc2ccccc2)cc1NC(=S)Nc1cccc(C(C)=O)c1` [Example 76, 3-[3-(3-Acetyl-phenyl)-thioureido]-4-methoxy-N-phenyl-benzamide] came in with a melting point of 176 to 177 °C. Further, in data set [1], the IC50 stood at 48 nM.
The compound `COc1ccc(C(=O)Nc2ccccc2)cc1NC(=S)Nc1ccc(Cl)c([N+](=O)[O-])c1` [Example 77, 3-[3-(4-Chloro-3-nitrophenyl)-thioureido]-4-methoxy-N-phenyl-benzamide] had a melting point of 174 to 175 °C. This compound yielded an IC50 in data set [1] of 11 nM.
For the compound `COc1ccc(C(=O)Nc2ccccc2)cc1NC(=S)Nc1ccc(F)cc1` [Example 78, 3-[3-(4-Fluorophenyl)-thioureido]-4-methoxy-N-phenyl-benzamide], the melting point is 182 to 183 °C. This compound also yielded an IC50 in data set [1] of 390 nM.
Taken in the same sequence, the figures for `COc1ccc(NC(=O)c2ccc(OC)c(NC(=S)Nc3cc(Cl)cc(Cl)c3)c2)cc1` [Example 79, 3-[3-(3,5-Dichlorophenyl)-thioureido]-4-methoxy-N-(4-methoxy-phenyl)-benzamide] were 175 to 182 °C and 127 nM.
Taken in the same sequence, the figures for `CCOc1ccc(C(=O)Nc2ccccc2)cc1NC(=S)Nc1cc(Cl)cc(Cl)c1` [Example 80, 3-[3-(3,5-Dichlorophenyl)-thioureido]-4-ethoxy-N-phenyl-benzamide] were 201 to 202 °C and 39 nM.
Taken in the same sequence, the figures for `COc1ccc(C(=O)Nc2ccccc2)cc1NC(=S)Nc1cccnc1` [Example 81, 4-Methoxy-N-phenyl-3-(3-pyridin-3-yl-thioureido)-benzamide] were 178 to 179 °C and 19 nM.
In the case of `COc1ccc(C(=O)Nc2ccccc2)cc1NC(=S)Nc1ccc(S(=O)(=O)O)cc1` [Example 82, 4-[3-(2-Methoxy-5-phenylcarbamoyl-phenyl)-thioureido]-benzenesulfonic Acid], the melting point is above 280 °C. The same compound showed an IC50 in data set [1] of 124 nM.
Taken in the same sequence, the figures for `COc1ccc(NC(=S)Nc2cc(C(=O)Nc3ccccc3)ccc2OC)cc1` [Example 83, 4-Methoxy-3-[3-(4-methoxy-phenyl)-thioureido]-N-phenyl-benzamide] were 168 to 169 °C and 81 nM.
On the same counts, the results for `COc1ccc(C(=O)Nc2ccccc2)cc1NC(=S)Nc1cccc(C(F)(F)F)c1` [Example 84, 4-Methoxy-N-phenyl-3-[3-(3-trifluoromethyl-phenyl)-thioureido]-benzamide] are 177 to 178 °C and 20 nM.
On the same counts, the results for `COc1ccc(C(=O)Nc2ccccc2)cc1NC(=S)Nc1ccc(Cl)c(Cl)c1` [Example 85, 3-[3-(3,4-Dichlorophenyl)-thioureido]-4-methoxy-N-phenyl-benzamide] are 174 to 175 °C and 20 nM.
`COc1ccc(NC(=O)Nc2ccccc2)cc1NC(=S)Nc1cc(Cl)cc(Cl)c1` [Example 86, 1-{3-[3-(3,5-Dichlorophenyl)-thioureido]-4-methoxyphenyl}-3-phenyl-urea] gave a melting point of 218 to 219 °C. In addition, in data set [1], it took 260 nM to reach half-maximal inhibition (IC50).
The compound `COc1ccc(NC(=O)c2ccccc2)cc1NC(=S)Nc1cc(Cl)cc(Cl)c1` [Example 87, N-{^3-[^3-(3,5-Dichlorophenyl)-thioureido]-4-methoxy-phenyl}-benzamide] yielded a melting point of 194 to 195 °C. The IC50 in data set [1] is 102 nM.
On the same counts, the results for `COc1ccc(C(=O)Nc2ccccc2)cc1NC(=S)Nc1ccc([N+](=O)[O-])cc1` [Example 88, 4-Methoxy-3-[3-(4-nitrophenyl)-thioureido]-N-phenyl-benzamide] are 183 to 184 °C and 33 nM.
`COc1ccc(C(=O)Nc2ccccc2)cc1NC(=S)Nc1cc(C(F)(F)F)cc(C(F)(F)F)c1` [Example 89, 3-[3-(3,5-Bis-trifluoromethylphenyl)-thioureido]-4-methoxy-N-phenyl-benzamide] yielded a melting point of 192 to 193 °C. This compound also registered an IC50 in data set [1] of 35 nM.
On the same counts, the results for `COc1ccc(C(=O)Nc2ccccc2)cc1NC(=S)Nc1ccc(S(N)(=O)=O)cc1` [Example 90, 4-Methoxy-N-phenyl-3-[3-(4-sulfamoyl-phenyl)-thioureido]-benzamide] are 193 to 195 °C and 24 nM.
On the same counts, the results for `COc1ccc(C(=O)Nc2ccc(Cl)cc2)cc1NC(=S)Nc1cc(Cl)cc(Cl)c1` [Example 92, N-(4-Chlorophenyl)-3-[3-(3,5-dichlorophenyl)-thioureido]-4-methoxy-benzamide] are 180 to 185 °C and 17 nM.
Taken in the same sequence, the figures for `COc1ccc(C(=O)Nc2ccccc2)cc1NC(=S)Nc1ccc(N(C)C)cc1` [Example 93, 3-[3-(4-Dimethylaminophenyl)-thioureido]-4-methoxy-N-phenyl-benzamide] were 179 to 180 °C and 82 nM.
For the compound `COc1ccc(C(=O)Nc2ccc(C)cc2)cc1NC(=S)Nc1cc(Cl)cc(Cl)c1` [Example 94, 3-[3-(3,5-Dichlorophenyl)-thioureido]-4-methoxy-N-p-tolyl-benzamide], the melting point lay within 178 to 180 °C. This compound also returned an IC50 in data set [1] of 42 nM.
As for `COc1ccc(C(=O)Nc2ccccc2)cc1NC(=S)Nc1cccc(C)c1` [Example 95, 4-Methoxy-N-phenyl-3-(3-m-tolyl-thioureido)-benzamide], the melting point was in the range of 168 to 171 °C. In addition, in data set [1], the IC50 came to 11 nM.
On the same counts, the results for `O=C(Nc1ccccc1)c1ccc(F)c(NC(=S)Nc2cc(Cl)cc(Cl)c2)c1` [Example 96, 3-[3-(3,5-Dichlorophenyl)-thioureido]-4-fluoro-N-phenyl-benzamide] are 173 to 175 °C and 46 nM.
